This is an account of results in the supplement of paper PMC10307832.

What all share (assay): relative viability (nuclei count vs DMSO), 5 days (fraction); higher = more cells survive
Compound in test [1]: CC(O)(CS(=O)(=O)c1ccc(F)cc1)C(=O)Nc1ccc(C#N)c(C(F)(F)F)c1 [Bicalutamide] + C[C@@H](Oc1cc(-c2cnn(C3CCNCC3)c2)cnc1N)c1c(Cl)ccc(F)c1Cl [Crizotinib] (partner 1 µM)
In outline: (§1)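 Dosing by pin tool came one day after lung cancer cell lines were seeded in 1536-well plates, using either one drug or a fixed anchor-drug dose plus five library-drug doses (not always all listed) in √10 steps. After 5 days, nuclei were counted on 4× images. Relative viability is treated-well nuclei count divided by vehicle-well nuclei count, and values are medians of duplicate plates.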

Compound in test [2]: C(C(=O)C(=O)O)Br [Bromopyruvate] + CC(=O)Nc1cccc(-n2c(=O)n(C3CC3)c(=O)c3c(Nc4ccc(I)cc4F)n(C)c(=O)c(C)c32)c1 [Trametinib] (partner 0.02 µM)
The procedure, abridged:
as §1

Compound in test [3]: C(C(=O)C(=O)O)Br [Bromopyruvate] + Nc1ncn([C@H]2C[C@H](O)[C@@H](CO)O2)c(=O)n1 [Decitabine] (partner 2 µM)
The procedure, abridged:
as §1

Compound in the test “Bicalutamide + Alpelisib”: CC(O)(CS(=O)(=O)c1ccc(F)cc1)C(=O)Nc1ccc(C#N)c(C(F)(F)F)c1 [Bicalutamide] + Cc1nc(NC(=O)N2CCC[C@H]2C(N)=O)sc1-c1ccnc(C(C)(C)C(F)(F)F)c1 [Alpelisib] (partner 2 µM)
The procedure, abridged: as §1

Take UMC-11: the relative viability in test [1] (first compound 0.08 µM) turned out to be 0.69; in test [1] (first compound 0.253 µM) it was 0.521; in test [1] (first compound 0.8 µM) it was 0.643; in test [1] (first compound 2.53 µM), 0.399; in test [2] (first compound 1 µM), 0.746; in test [2] (first compound 3.162 µM), 0.604. The relative viability in test [2] (first compound 10 µM) came to 0.622; in test [2] (first compound 31.62 µM) it was 0.732; in test [2] (first compound 100 µM) it was 0.748; in test [3] (first compound 1 µM), 0.596; in test [3] (first compound 3.162 µM), 0.574; in test [3] (first compound 10 µM), 0.815. In addition, the relative viability in test [3] (first compound 31.62 µM) was 0.617; in test [3] (first compound 100 µM), 0.708; with Bicalutamide + Alpelisib (first compound 0.08 µM) it was 1.05; with Bicalutamide + Alpelisib (first compound 0.253 µM), 0.9; with Bicalutamide + Alpelisib (first compound 0.8 µM), 1.12; with Bicalutamide + Alpelisib (first compound 2.53 µM), 0.976.
